In PubChem BioAssay AID179 (DTP/NCI, 2004):
Several values for one entry are separate records, joined by “and”; a condition that tells them apart may be missing. Equal values may be shown once. Activity calls are given as the source filed them.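 Rule for the calls: active = compounds giving half or more protection of infected cells from virus-caused growth loss, again on retest; inactive = the rest.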 Where a SMILES comes first, the peptide text is derived from it.

Test system: CEM cells HIV-1 protection, formazan growth assay
Assay: NCI AIDS Antiviral Assay
Details: for IC50: measured here: growth of uninfected CEM cells
How it was run: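 Human CEM cells, uninfected and HIV-1-infected, received five drug concentrations, and growth was read by soluble formazan assay. Compounds giving at least 50% protection were retested; reproducible 100% protection defined confirmed active.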

| SMILES | outcome | EC50 [µM] | IC50 |
| --- | --- | --- | --- |
| CC(C)CC(NC(=O)C(NC(=O)C(CO)NC(=O)C(C)NC(=O)C(CCCN=C(N)N)NC(=O)C(C)NC(=O)CN)C(C)C)C(=O)NC(CO)C(N)=O (centres undefined) (H-GARASVLS-NH2; configuration not given here) | inactive | – | – |
| Cc1cc(C)c(NS(=O)c2cccc(C(F)(F)F)c2)c(C)c1 (centres undefined) | – | > 110 | > 110 µM |
| Cc1ccc(Cc2n[nH]c(=O)[nH]2)cc1 | – | > 200 | > 200 µM |
| CCOC(=O)CCCSCCCC(=O)CCCSCCCC(=O)OCC | – | > 447 | 309 µM |
| COc1ccc(C2CC(c3c(C)nn(-c4ccccc4)c3-c3ccc(C)cc3O)=NN2c2ccccc2)cc1 (centres undefined) | – | > 200 | 12.9 µM |
| CCC1CN2CCc3cc(OC)c(OC)cc3C2CC1CC1c2cc(OC)c(OC)cc2CCN1C(=O)C(Cc1c[nH]c2ccccc12)NC(=O)OC(C)(C)C (centres undefined) | inactive | – | – |
| O=C(NCCC1([N+](=O)[O-])CCN(C(=O)c2ccccc2)CC1)c1ccccc1 | inactive | – | – |
| COc1nc(NC2OCC(OC(C)=O)C(OC(C)=O)C2OC(C)=O)c(-c2csc(N)n2)c(=O)n1C (centres undefined) | inactive | – | – |
| COC(=O)C1=C(C(=O)OC)C2(OC(C)=O)c3ccccc3-c3ccccc3C12 (centres undefined) | – | > 2.51 | 1.35 µM |
| COc1csc([C@H]2CCC3[C@@H]4CC=C5C[C@@H](O)CC[C@]5(C)C4CC[C@@]32C)n1 (some centres undefined) | – | > 17.4 | > 17.4 µM |
| COC1C(OC(=O)c2ccc(C)[nH]2)C(O)C(Oc2ccc3c(O)c(NC(=O)c4ccc(O)c(CC=C(C)C)c4)c(=O)oc3c2Cl)OC1(C)C (centres undefined) | – | > 200 | 15.8 µM |
| O=S1[C@H](c2ccccc2)c2c(-c3ccccc3)sc(-c3ccccc3)c2[C@@H]1c1ccccc1 (some centres undefined) | inactive | – | – |
| CC(=O)Oc1ccc2c(=O)c(C(C)=O)coc2c1 | inactive | – | – |
| CN1C2Cc3cc4c(cc3[C@@]23Cc2ccc5c(c2[C@@H]1O3)OCO5)OCO4 (some centres undefined) | – | > 200 | 120 µM |
| OCCN(CCO)c1cccc(N(CCO)CCO)n1 | inactive | – | – |
| Oc1ccc2c(c1)CC[N+]1=C2CCC2CCCC21 (centres undefined) | – | > 209 | > 209 µM |
| O=C1NC2C(O)CCCCC2C12CCCCC2 (centres undefined) | inactive | – | – |
| O=C1CN(CCCO)CC(=O)N2Cc3ccccc3CN12 | – | > 200 | > 200 µM |
| CC(C)CC(NC(=O)C(COc1ccc([N+](=O)[O-])cc1)Cc1ccccc1)C(=O)Nc1ccccc1 (centres undefined) | – | > 100 | 15.1 µM |
| CCOC(=O)c1[nH]n(-c2ccccc2)c(=O)c1C=NC(C)=S | – | > 200 | > 100 µM |
| O=[N+]([O-])c1nccn1CCC[n+]1ccc2ccccc2c1 | – | > 100 | 74.1 µM |

| SMILES | outcome | EC50 [µM] | IC50 |
| --- | --- | --- | --- |
| NC(=Nc1ccccc1)N(c1ccccc1)c1nc(=S)ss1 | – | > 200 | 83.2 µM |
| O=C(O)/C(=C/c1ccccc1[N+](=O)[O-])c1ccccc1 | – | > 603 | 550 µM |
| Cc1nc2ccc(N=Nc3c(O)ccc4ccccc34)cc2[nH]1 | – | > 61.7 | 55 µM |
| Nc1ccc(-c2ncc3cc(-c4cccc(-c5cc6cnc(-c7ccc(N)cc7)nc6c6ccccc56)c4)c4ccccc4c3n2)cc1 | – | > 200 | > 200 µM |
| CC(=O)/C(=C/n1c(=S)[nH]c2ccccc21)C(=O)Nc1ccccc1C | – | > 200 | > 200 µM |
| CC(=Nc1ccccc1C(=O)[O-])c1c([O-])ccc2c(C)cc(=O)oc12.[Co+2].[OH3+].[OH3+].[OH3+] | – | > 3.24 | > 3.24 µM |
| COC(=O)NC(C(F)(F)F)(C(F)(F)F)P1(=O)OCCCO1 | – | > 200 | 63.1 µM |
| COC(=O)c1ccccc1/C=C1\Cc2c(C)c3c(c(C)c2C1=O)CCC3 | inactive | – | – |
| O=c1cc2oc3cc(O)c(O)cc3c(-c3ccccc3O)c-2cc1O | – | > 200 | 115 µM |
| CC(C(=O)O)n1[se]c2ccccc2c1=O (centres undefined) | – | 12.6 | 120 µM |
| Cc1ccc(S(=O)(=O)c2ccccn2)cc1 | – | 132 | 380 µM |
| COc1ccc(NC2(Br)C(=O)NC(=O)NC2C(=O)O)cc1 (centres undefined) | – | > 20 | > 20 µM |
| CC1(C)OC2OC(C3COS(=O)O3)C(Cl)C2O1 (centres undefined) | – | > 871 | 490 µM |
| COP(=O)(OC)C(NC=O)P(=O)(OC)OC | – | > 200 | > 200 µM |
| O=C(Nc1ccccc1)N1CC2(CN1)CNN(C(=O)Nc1ccccc1)C2 | – | > 182 | > 182 µM |
| O=c1cc2ccccc2nn1Cc1cccc(Cl)c1 | – | > 115 | 102 µM |
| CCN(CC)c1ccc(C2N3CCCCC3[C@@H]3c4[nH]c5ccccc5c4CCN23)cc1 (some centres undefined) | – | > 16.2 | > 16.2 µM |
| Cc1cc2c(=O)[nH]nc(N)c2c(N)n1 | – | > 200 | > 200 µM |
| COC(=O)NC[C@@H]1OCc2cc3c(cc2[C@]12C=CCCC2)OCO3 | – | > 107 | 2.63 µM |
| COC(=O)[C@@H]1[C@H](O)[C@H](C)[C@H](O)[C@@](C)(O)/C=C\C=C(C)C(=O)Nc2c(C)c(OC(C)=O)c3c(c2O)C(=O)C(C)=C2OCOC(=C23)C(C)=C[C@@](C)(O)[C@H](O)[C@@H](C)[C@H]1OC(C)=O | – | > 302 | 17 µM and > 43.7 µM |
| NC1CC(=O)c2cc(Cl)sc21 (centres undefined) | – | > 200 | > 200 µM |

| SMILES | outcome | EC50 [µM] | IC50 |
| --- | --- | --- | --- |
| COc1ccc2c(c1)C(=O)C13CC(C(=O)OCc4ccccc4)C(OC(C)=O)(CCC21)C3 (centres undefined) | – | > 72.4 | > 72.4 µM |
| COC(=O)C1=NN2c3ccccc3C(=O)OCCC2(C)C1 (centres undefined) | – | > 200 | > 200 µM |
| COC(=O)C1(C(=O)OC)C2=Nc3ccccc3[C@@]23CCN(Cc2ccccc2)C3C[C@H]1c1ccoc1 (some centres undefined) | – | > 36.3 | 21.4 µM |
| Cc1ccc(C(=O)c2ccccc2)c(C(=O)O)c1 | – | > 200 | > 200 µM |
| O=C(NC1CN2CCC1CC2)C(c1ccc(F)cc1)c1ccc(F)cc1 (centres undefined) | – | > 200 | 5.37 µM |
| N#CC1=C(N)OC(c2ccc([N+](=O)[O-])cc2)C1(C#N)C#N (centres undefined) | – | > 200 | 10 µM |
| CC(=O)CC(C)=O.CC(=O)CC(C)=O.[O]=[V] | inactive | – | – |
| COc1cc(-c2cc(=O)c3cc4c(=O)cc(-c5cc(OC)c(OC)c(OC)c5)oc4cc3o2)cc(OC)c1OC | – | > 100 | > 100 µM |
| CC(=O)C1=C(O)C2(O)C(=O)c3c(c(C)c4ccc(C)c(O)c4c3O)CC2C(N)C1=O (centres undefined) | – | > 53.7 | 3.55 µM |
| COC1=C(C)C(=O)C(=O)c2c(C)ccnc21 | inactive | – | – |
| CC(=O)C(C(=O)C(=O)Nc1cc(Cl)c(Cl)cc1Cl)c1csc(N)n1 (centres undefined) | – | > 229 | > 229 µM |
| CC(C)(C)c1cc(N=NC(=S)NCc2ccccc2)cc(C(C)(C)C)c1O | – | > 7.08 | > 7.08 µM |
| C#CCN(C(=O)C(F)(F)F)C(/C=C\C(=O)OC)(C(=O)OCC)C(=O)OCC | – | > 200 | 83.2 µM |
| CN(C)CC1CCCC(CN(C)C)C1O (centres undefined) | – | > 871 | > 871 µM |
| C/C=C1\CC(C(=O)OCC)CCCCCCCCCCC1=O (centres undefined) | – | > 200 | 8.51 µM |
| S=C1NC2(CCCCC2)C2=C(CCCC2)S1 | – | > 141 | 12 µM |
| CCOC(=O)c1ccc(/C(C)=N/NC(N)=S)cc1 | inactive | – | – |
| CO[C@H]1/C=C/O[C@@]2(C)Oc3c(C)c(O)c4c(O)c(c(/C=N/N5C(C)CN(Cc6ccccc6)CC5C)c(O)c4c3C2=O)NC(=O)/C(C)=C\C=C\[C@H](C)[C@H](O)[C@@H](C)[C@@H](O)[C@@H](C)[C@H](OC(C)=O)[C@@H]1C (some centres undefined) | – | > 200 | 9.77 µM |
| Nc1ccc(/C=C/c2cccc3cccnc23)cc1 | – | 0.0631 | > 200 µM |
| CC1(C)COC(C23C4C5C2C2C3C4C52I)=N1 (centres undefined) | – | > 79.4 | > 79.4 µM |
| CCOC(=O)c1[nH]c(CN(C)Cc2[nH]c(C(=O)OCC)c(C)c2C(=O)OCc2ccccc2)c(C(=O)OCc2ccccc2)c1C | – | > 6.03 | > 6.03 µM |

| SMILES | outcome | EC50 [µM] | IC50 |
| --- | --- | --- | --- |
| COC1OC(=O)c2ccccc21 (centres undefined) | inactive | – | – |
| C=C(c1ccccc1)C1ON(C)CCc2cc(OC)c(OC)cc21 (centres undefined) | – | > 200 | > 100 µM |
| CC(C)C1CNC(=O)C2(CCCO2)CNC(C(C)C)CNC(=O)C2(CCCO2)CN1 (centres undefined) | – | > 295 | > 295 µM |
| N#CC(NNC(=O)Cc1ccccc1)c1ccccc1O (centres undefined) | – | > 129 | 17 µM |
| NS(=O)(=O)c1cc(=O)[nH]c(=O)[nH]1 | – | > 457 | 251 µM |
| Cc1c(C#N)c2n(c1C)CCCC(=O)N2 | – | > 219 | > 219 µM |
| CC(=O)OCC1OC(n2cc(C(F)(F)F)c(=O)[nH]c2=O)CC1OC(C)=O (centres undefined) | – | > 200 | 2.45 µM |
| [N-]=[N+]=NC12CC3C4CC5CC3C(C1)C(C5)C4C2 | – | > 282 | 162 µM |
| Cn1c(Cl)cn2c3nc4ccccc4nc3c(=O)c(C#N)c12 | inactive | – | – |
| Cc1c(C)c2c(c(N)c1C#N)C(=O)N(OS(=O)(=O)c1ccccc1)C2=O | – | > 151 | 25.7 µM |
| C[C@@H]1CCC(=O)C(C(=O)CC2CC(=O)NC2=O)C1 (some centres undefined) | – | > 200 | > 200 µM |
| OC1CCN(Cc2ccccc2)C[C@@H]1CNC12CC3CC(CC(C3)C1)C2 (some centres undefined) | – | > 100 | 93.3 µM |
| Cc1cc(N(CCCl)CCCl)ccc1N=Nc1ccccc1 | – | > 200 | 19.5 µM |
| CC(=O)O/N=C/c1cc2c(cc1Br)OCO2 | – | > 18.2 | > 18.2 µM |
| Cc1ccc([PH+](CC[PH+](c2ccccc2)c2ccccc2)c2ccc(C)cc2)cc1.Cc1ccc([PH+](CC[PH+](c2ccccc2)c2ccccc2)c2ccc(C)cc2)cc1.[Pt] | – | > 6.92 | 3.8 µM |
| Nc1ncnc2c1ncn2C1OC(COP(=O)(O)O)C(O)C1O (centres undefined) | – | > 200 | > 200 µM |
| O=C(O)C1CC(C2CCCCN2)CN2CCCCC12 (centres undefined) | – | > 200 | > 200 µM |
| COc1ccc(-c2c3c(n(C4OC(COC(C)=O)C(OC(C)=O)C(OC(C)=O)C4OC(C)=O)c(=S)c2C#N)CC(C)(C)CC3=O)cc1 (centres undefined) | – | > 200 | 26.3 µM and 53.7 µM |
| Cc1ccc(S(=O)(=O)NC(CSSCC(NS(=O)(=O)c2ccc(C)cc2)C(=O)OC(C)(C)C)C(=O)OC(C)(C)C)cc1 (centres undefined) | – | > 200 | > 200 µM |
| CCCCOCC(=O)C1CC[C@@H]2[C@H](CC[C@]3(C)[C@@H](O)CC[C@@H]23)[C@H]1C(=O)O (some centres undefined) | – | > 50.1 | > 50.1 µM |
| COc1ccc2nc3cc(Cl)ccc3c(NC(C)CCCN(C)C)c2n1 (centres undefined) | – | > 2 | 1.02 µM |
